Each structure is given as a SMILES string.

For this test, the target named is T1, Src kinase (Homo sapiens, UniProt P12931).
T1 construct: purchased Upstate Bioteolnology (sic; Upstate Biotechnology); later HMR stock 27597-019E1 #14-117
T1 sequence (P12931 whole entry): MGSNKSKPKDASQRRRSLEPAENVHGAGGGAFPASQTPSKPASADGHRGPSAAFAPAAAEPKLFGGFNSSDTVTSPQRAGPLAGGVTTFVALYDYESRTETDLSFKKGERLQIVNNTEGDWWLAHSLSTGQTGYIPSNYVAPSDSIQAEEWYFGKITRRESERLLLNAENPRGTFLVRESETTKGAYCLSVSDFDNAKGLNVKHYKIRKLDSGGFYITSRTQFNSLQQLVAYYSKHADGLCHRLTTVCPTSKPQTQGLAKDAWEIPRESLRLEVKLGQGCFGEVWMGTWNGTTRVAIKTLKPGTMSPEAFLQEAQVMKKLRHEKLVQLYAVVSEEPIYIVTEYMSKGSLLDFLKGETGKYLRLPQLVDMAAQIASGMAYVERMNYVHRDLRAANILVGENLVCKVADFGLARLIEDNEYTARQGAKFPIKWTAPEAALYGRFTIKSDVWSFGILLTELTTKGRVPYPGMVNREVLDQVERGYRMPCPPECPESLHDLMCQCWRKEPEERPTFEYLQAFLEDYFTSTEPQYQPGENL
Briefly: Phosphorylation assay of Src kinase inhibitors (radiometric, 96 well filter plate). In kind it is biochemical. The settings on record: duplicates, tested in the range of 400-0.098 µM; 10 µM peptide substrate (FIYGAFKKKKNH2), 5 µM unlabeled ATP, room temperature 30 min; read-out: IC50. The procedure, abridged: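 Radiometric filter-plate assay: Src kinase (1:100 dilution) was incubated with 10 μM peptide FIYGAFKKK-NH2, 5 μM unlabeled ATP and radiolabeled ATP for 30 min at room temperature. Reactions were stopped with 150 mM H3PO4, the peptide was captured on phosphocellulose and scintillation counted. Ki values were determined for some compounds.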
As usually defined, the IC50 is the concentration that gives 50% inhibition. With `CNC(=O)[C@@H](Cc1ccc(C(=O)OC)cc1)C(=O)NCCCCOc1cc2ccccc2cc1C(=O)NCC(N)=O` [Example 147, 3-[[4-[N-[1-OXO-2-(N-METHYLAMINO- CARBONYL)-3-[(4-(METHOXY- CARBONYL)PHENYL]]PROPYL]- AMINO]BUTOXY]-NAPHTHALENE-2- (N-ACETAMIDO)CARBOXAMIDE], the concentration for half-maximal inhibition (IC50) turned out to be 18 µM. To `CNC(=O)[C@@H](Cc1cccc(C(=O)OC)c1)C(=O)NCCCCOc1cc2ccccc2cc1C(=O)NCC(N)=O` [Example 148, 3-[[4-[N-[1-OXO-2-(N-METHYLAMINO- CARBONYL)-3-[(3-(METHOXY- CARBONYL)PHENYL]]PROPYL]- AMINO]BUTOXY]-NAPHTHALENE-2- (N-ACETAMIDO)CARBOXAMIDE] belongs 203 µM; to `N#C/C(=C\c1ccc(O)cc1)C(=O)NCCCCOc1cc2ccccc2cc1C(=O)NCC(N)=O` [Example 149, 3-[[4-[N-[1-OXO-2-(CYANO)-3-(4- HYDROXYPHENYL)]PROPEN-2-YL]- AMINO] BUTOXY]-NAPHTHALENE-2- [N-ACETAMIDO]CARBOXAMIDE], 27 µM. The same measure for `NC(=O)CNC(=O)c1cc2ccccc2cc1OCCCCNC(=O)C(=C/c1ccc(O)cc1)/C(N)=N/O` [Example 150, 3-[[4-[N-[1-OXO-2-[(HYDROXYIMINO)- (AMINO)METHYL]-3-(4-HYDROXY- PHENYL)]]PROP-2-ENYL]AMINO]- BUTOXY]-NAPHTHALENE-2-(N- ACETAMIDO)CARBOXAMIDE]: 16 µM; for `CN(CCCCOc1cc2ccccc2cc1C(=O)NCC(N)=O)C(=O)C(N)Cc1csc2ccccc12` (stereo not drawn) [Example 153, 3-[[[4-[3-(BENZOTHIOPHEN-3-YL)-2- AMINO-1-OXO]PROPYL](N-METHYL)- AMINO]BUTOXY]-NAPHTHALENE-2- (N-ACETAMIDO)CARBOXAMIDE]: 0.33 µM.

With `CCNC(=O)CNC(=O)c1cc2ccccc2cc1OCCCCN(C)C(=O)C(N)Cc1csc2ccccc12` (stereo not drawn) [Example 154, 3-[[[4-[3-(BENZOTHIOPHEN-3-YL)-2- AMINO-1-OXO]PROPYL](N-METHYL)- AMINO]BUTOXY]-NAPHTHALENE-2- [(N-(N-ETHYL)ACETAMIDO]- CARBOXAMIDE], the IC50 is 4 µM.

The record behind these values is patent US20040014676A1, “SRC kinase inhibitors useful for treating osteoporosis” (priority 2001, published 2004).
